Source: PMC3242765, “Inhibitors of Alphavirus Entry and Replication Identified with a Stable Chikungunya Replicon Cell Line and Virus-Based Assays” (PLoS ONE, 2011)
Entries after “also recorded” stand apart in the source; their conditions may differ. Where two headings read alike, the source gives them in different places.

Legend:
BHK cells = experiment: Cell viability ATP assay, BHK cells; assay type: cell-based, hamster; conditions: Mesocricetus auratus, BHK, 48 h, read-out: Cell viability IC50
SINV = experiment: CPE reduction assay, SINV (WST-1); assay type: cell-based, Sindbis virus (SINV); conditions: Sindbis virus, BHK, 24 h, read-out: SINV IC50 (CPE reduction)
CHIKV replicon = experiment: microbe, parasite or virus in culture; assay type: cell-based, Chikungunya virus (CHIKV)
SFV [1] = experiment: Viral yield analysis using a plaque assay; assay type: cell-based, Semliki Forest virus (SFV); conditions: for Decrease of SFV titer versus untreated control: 50 µM compound, MOI 0.01, 16 h; for SFV yield: BHK cells, MOI 0.01, 50 µM compound, 16 h, untreated control 1.4×10^9 PFU/ml
SFV [2] = experiment: CPE reduction assay, SFV (WST-1); assay type: cell-based, Semliki Forest virus (SFV); conditions: Semliki Forest virus, BHK, 22 h, read-out: SFV IC50 (CPE reduction)
SFV-Rluc [3] = experiment: microbe, parasite or virus in culture; conditions: Semliki Forest virus, BHK; for IC50: 14 h, read-out: SFV IC50
BHK-CHIKV-NCT cells = experiment: Cell viability ATP assay, BHK-CHIKV-NCT cells; assay type: cell-based, hamster
SFV-Rluc [4] = conditions: for IC50: read-out: SFV IC50
CHIKV-Rluc = experiment: microbe, parasite or virus in culture; assay type: cell-based, Chikungunya virus (CHIKV); conditions: Chikungunya virus, BHK, 16 h, read-out: CHIKV-Rluc IC50
CHIKV [5] = conditions: cited from earlier work
SFVts9-Rluc = assay type: cell-based, Semliki Forest virus (SFV)
CHIKV [6] = conditions: 2006 La Réunion outbreak; cited from earlier work
[7] = Chikungunya virus, 48 h, read-out: EGFP IC50
[8] = Chikungunya virus, 48 h, read-out: Rluc IC50
[9] = Mesocricetus auratus, 48 h, read-out: Cell viability IC50, ATP assay, 48 h exposure of BHK-CHIKV-NCT cells, up to 200 µM

Compound | IC50 (BHK cells) | IC50 (SINV) | IC50 (CHIKV replicon; [7]) | IC50 (CHIKV replicon; [8]) | Decrease of SFV titer versus untreated control (SFV [1]) | SFV yield (SFV [1]) | IC50 (SFV [2]) | IC50 (SFV-Rluc [3]) | IC50 (BHK-CHIKV-NCT cells; [9]) | SI (selectivity index) (SFV-Rluc [4]) | IC50 (CHIKV-Rluc) | CHIKV replicon % left (CHIKV replicon) | Effect on SFV entry (Rluc activity) (SFVts9-Rluc) | SFV replication % left (surviving fraction, remaining percentage of SFV replication) (SFV-Rluc [4]) | further results
Nc1ncnc2c1ncn2[C@@H]1O[C@H](CO)[C@@H](N)[C@H]1O [3′-NH2-3′-deoxyadenosine, 3′-amino-3′-deoxyadenosine] | 174 µM | 23.4 µM | 34 µM | 62.4 µM | two orders of magnitude | 2.7×10^7 PFU/ml | 17.5 µM | 16.2 µM | 187 µM | 10.7 |  |  |  |  | 
O=c1cnn([C@@H]2O[C@H](CO)[C@@H](O)[C@H]2O)c(=O)[nH]1 [6-Azauridine] | > 200 µM | > 200 µM |  |  |  | 9.1×10^7 PFU/ml | > 200 µM | > 200 µM | > 200 µM |  | 29.7 µM |  |  |  | IC50 (CHIKV [5]; approximate conversion of 0.2 µg/ml, read-out: previously reported potency for CHIKV, converted): ~0.8 µM; previously reported potency for CHIKV (CHIKV [5]): 0.2 µg/mL; inhibition at 200 µM (SFV-Rluc [3]; read-out: Inhibition of SFV-Rluc): 40%
O=c1cc(-c2ccc(O)cc2)oc2cc(O)cc(O)c12 [Apigenin] | > 200 µM | 7.2 µM | 22.5 µM | 28.3 µM |  | 6.7×10^7 PFU/ml | 4.4 µM | 20.6 µM | > 200 µM | >9.7 | 70.8 µM | 8.7% | None of the other compounds, including the flavonoids apigenin, chrysin, naringenin and silybin, inhibited SFV entry | 18.0% | 
CCN(CC)CCCC(C)Nc1ccnc2cc(Cl)ccc12 (stereo not drawn) [Chloroquine] | > 200 µM | 11.3 µM |  |  | two orders of magnitude | 3.3×10^7 PFU/ml | 8.2 µM | 13.4 µM |  | >14.9 |  | 104.4% |  | 12.2% | Suppression of CHIKV replicon (in words) (CHIKV replicon): no suppression of replicon propagation; also recorded: has no effect on CHIKV replicon; Effect on Rluc signal of SFVts9-Rluc (entry) (SFVts9-Rluc): dose-dependent inhibition of Rluc signal; Clinical efficacy in acute CHIKV viremia (duration of viremia, severity and duration of symptoms) (CHIKV [6]): failed to show any benefits
O=c1cc(-c2ccccc2)oc2cc(O)cc(O)c12 [Chrysin] | > 200 µM | 43.3 µM | 46.8 µM | 50.2 µM |  | 2.9×10^8 PFU/ml | 22.9 µM | 13.7 µM | > 200 µM | >14.6 | 127 µM | 13.8% | None of the other compounds, including the flavonoids apigenin, chrysin, naringenin and silybin, inhibited SFV entry | 18.1% | 
CCN(CC)C(C)CN1c2ccccc2Sc2ccccc21 (stereo not drawn) [Ethopropazine] | 167 µM | 21.4 µM |  |  |  | 8.1×10^8 PFU/ml | 17.1 µM | 16 µM |  | 10.4 | 61.5 µM |  | decreased the Rluc activity |  | 
COc1c(C)c2c(c(O)c1C/C=C(\C)CCC(=O)O)C(=O)OC2 [Mycophenolic acid, reference compound] | > 200 µM | 44.4 µM | ~1 µM |  | approximately one order of magnitude | 1.2×10^8 PFU/ml | 39 µM | ~100 µM | > 200 µM | >1.7 |  |  |  |  | Change of replicon IC50 with guanosine supplementation (CHIKV replicon): increased by at least two orders of magnitude; IC50 (CHIKV replicon; read-out: EGFP IC50): 1.5 µM; IC50 (SFV-Rluc [4]): 121 µM
O=C1C[C@@H](c2ccc(O)cc2)Oc2cc(O)cc(O)c21 [Naringenin] | 94.1 µM | 21.2 µM | 25.8 µM | 30 µM |  | 8.2×10^7 PFU/ml | 19.3 µM | 2.2 µM | 104 µM | 42.8 | 118 µM | 6.2% | None of the other compounds, including the flavonoids apigenin, chrysin, naringenin and silybin, inhibited SFV entry | -0.0736% | IC50 (BHK-CHIKV-NCT cells; read-out: Cell viability IC50, ATP assay, 48 h exposure of BHK-CHIKV-NCT cells, up to 200 µM): 122 µM
CN(C)CCCN1c2ccccc2Sc2cccnc21 [Prothipendyl] | > 200 µM | 46.5 µM | 135 µM | 93.3 µM |  | 4.0×10^8 PFU/ml | 34.2 µM | 8.2 µM | 186 µM | >24.4 | 97.3 µM |  |  |  | 
NC(=O)c1ncn([C@@H]2O[C@H](CO)[C@@H](O)[C@H]2O)n1 [Ribavirin] | > 200 µM | 51.8 µM | 8.8 µM | 25.4 µM | approximately one order of magnitude | 2.1×10^8 PFU/ml | 28.1 µM | ~100 µM | > 200 µM |  |  |  |  |  | Change of replicon IC50 with guanosine supplementation (CHIKV replicon): increased by at least two orders of magnitude; IC50 (SFV-Rluc [4]): 95.1 µM
COc1cc(C2Oc3cc([C@H]4Oc5cc(O)cc(O)c5C(=O)[C@@H]4O)ccc3OC2CO)ccc1O (stereo partly drawn) [Silybin] | > 200 µM | 22.6 µM | 71.1 µM | 59.8 µM |  | 3.7×10^8 PFU/ml | 9.6 µM | 16.4 µM | > 200 µM | >12.2 | 92.3 µM | 14.1% | None of the other compounds, including the flavonoids apigenin, chrysin, naringenin and silybin, inhibited SFV entry | 22.4% | 
